Consider nine compounds from US20240010606A1, “FUMARATE DERIVATIVES AND THEIR MEDICAL USE” (Sitryx Therapeutics Limited, priority 2020, published 2024).

Counter-ions that a name gives are not always drawn.

In general, IC50 refers to the concentration at which inhibition is half-maximal. Higher therefore signals weaker potency. What is called EC50 is the midpoint of the concentration-response curve. Low readings indicate higher potency in that assay, high ones lower potency in that assay.

Data set [1] has as its system hepatocytes. The data set is described as follows: Hepatocyte stability assay, mouse. The data set is classed as in vitro ADME. The settings on record: 10 μM compound. The text has this: (§1) Biological Example 3—Hepatocyte Stability Assay
(§2) Defrosted cryo-preserved hepatocytes (viability >70%) are used to determine the metabolic stability of a compound via calculation of intrinsic clearance (CIint; a measure of the removal of a compound from the liver in the absence of blood flow and cell binding). Clearance data are particularly important for […] as they can be used in combination with in vivo data to predict the half-life and oral bioavailability of a drug.
(§3) The metabolic stability in hepatocytes assay involves a time-dependent reaction using both positive and negative controls. The cells must be pre-incubated at 37° C. then spiked with test compound (and positive control); samples taken at pre-determined time intervals are analysed to monitor the change in concentration of the initial drug compound over 60 minutes. A buffer incubation reaction (with no hepatocytes present) acts as a negative control and two cocktail solutions, containing compounds with known high and low clearance values (verapamil/7-hydroxycoumarin and propranolol/diltiazem), act as positive controls. • 1. The assay is run with a cell concentration of 0.5×10^6 cells/mL in Leibovitz buffer. • 2. All compounds and controls are run in duplicate. • 3. Compound concentration is 10 μM. • 4. All compounds and controls are incubated with both cells and buffer to show turnover is due to hepatic metabolism. • 5. All wells on the incubation plate will have 326.7 μL of either cells or buffer added. • 6. Prior to assay, cell and buffer-only incubation plates are preincubated for 10 mins at 37° C. • 7. The assay is initiated by adding compounds, 3.3 μL of 1 mM in 10% DMSO-90% Buffer; final DMSO concentration is 0.1%. • 8. Samples are taken at regular timepoints (0, 5, 10, 20, 40, 60 min) until 60 mins. • 9. Sample volume is 40 μL and it is added to 160 μL of crash solvent (acetonitrile with internal standard) and stored on ice. • 10. At the end of the assay, the crash plates are centrifuged at 3500 rpm for 20 mins at 4° C. • 11. 80 μL of clear supernatant is removed and mixed with 80 μL of deionised water before being analysed by LC-MS/MS.
(§4) Raw LC-MS/MS data are exported to, and analysed in, Microsoft Excel for determination of intrinsic clearance. The percentage remaining of a compound is monitored using the peak area of the initial concentration as 100%. Intrinsic clearance and half-life values are calculated using a graph of the natural log of percentage remaining versus the time of reaction in minutes. Half-life (min) and intrinsic clearance (CIint in μL min^−1 10^−6 cells) values are calculated using the gradient of the graph (the elimination rate constant, k) and Equations 1 and 2.

Data set [2] in a line: Hepatocyte stability assay, mouse. The data set is classed as in vitro ADME. The conditions noted are these: mouse, cryopreserved hepatocytes, 10 μM compound.
Text: as §1, §2, §3, §4

In data set [3] the test system is hepatocytes. The data set is described as follows: Hepatocyte stability assay, human. In kind it is in vitro ADME. The conditions noted are these: 10 μM compound.
Text: as §1, §2, §3, §4

A short description of data set [4]: Hepatocyte stability assay, human. The data set is classed as in vitro ADME. The settings on record: cryopreserved hepatocytes, 10 μM compound, Table 5, read-out: T½.
Text: as §1, §2, §3, §4

Another data set relates to IL-1β. The data set can be described thus: THP-1 AlphaLISA IL-1β cytokine assay. The data set is classed as cell-based. The conditions noted are these: Homo sapiens; differentiated THP-1 cells, LPS then Nigericin; Table 1. Here is the method:
Biological Example 1—THP-1 AlphaLISA IL-1β and IL-6 Cytokine Assay Measuring Inhibitory Effects on IL-1, and IL-6 Cytokine Output from THP-1s The cytokine inhibition profiles of compounds of formula (I) were determined in a differentiated THP-1 cell assay. All assays were performed in RPMI-1640 growth medium (Gibco), supplemented with 10% fetal bovine serum (FBS; Gibco), 1% penicillin-streptomycin and 1% sodium pyruvate unless specified otherwise. The IL-1β and IL-6 cytokine inhibition assays were each run in a background of differentiated THP-1 cells as described below. All reagents described were from Sigma-Aldrich unless specified otherwise. Compounds were prepared as 10 mM DMSO stocks. THP-1 cells were expanded as a suspension up to 80% confluence in appropriate growth medium. Cells were harvested, suspended, and treated with an appropriate concentration of phorbol 12-myristate 13-acetate (PMA) over a 72 hr period (37° C./5% CO2). Following 72 hrs of THP-1 cell incubation, cellular medium was removed and replaced with fresh growth media containing 1% of FBS. Working concentrations of compounds were prepared separately in 10% FBS treated growth medium and pre-incubated with the cells for 30 minutes (37° C./5% CO2). Following the 30 minute compound pre-incubation, THP-1s were treated with an appropriate concentration of LPS and the THP-1s were subsequently incubated for a 24 hr period (37° C./5% CO2). An appropriate final concentration of Nigericin was then dispensed into the THP-1 plates and incubated for 1 hour (37° C./5% CO2) before THP-1 supernatants were harvested and collected in separate polypropylene 96-well holding plates. Reagents from each of the IL-1β and IL-6 commercial kits (Perkin Elmer) were prepared and run according to the manufacturer's instructions. Subsequently, fluorescence signal detection in a microplate reader was measured (EnVision® Multilabel Reader, Perkin Elmer). Percentage inhibition was calculated per cytokine by normalizing the sample data to the high and low controls used within each plate (+/−LPS respectively). Percentage inhibition was then plotted against compound concentration and the 50% inhibitory concentration (IC50) was determined from the resultant concentration-response curve.
(In general: In Alpha technology, singlet oxygen from a donor bead excites a nearby acceptor bead.)

Another data set concerns NRF2. The data set is described as follows: NRF2 activation assay (DiscoverX PathHunter NRF2 translocation kit, U2OS cells). In kind it is cell-based. The conditions noted are these: Table 3; for NRF2 activation Emax: normalised to dimethyl fumarate high control. As for the experimental part: Biological Example 2—NRF2 Activation Assay Measuring Compound Activation Effects on the Anti-Inflammatory Transcription Factor NRF2 in DiscoverX PathHunter NRF2 Translocation Kit Potency and efficacy of compounds of formula (I) against the target of interest to activate NRF2 (nuclear factor erythroid 2-related factor 2) were determined using the PathHunter NRF2 translocation kit (DiscoverX). The NRF2 translocation assay was run using an engineered recombinant cell line, utilising enzyme fragment complementation to determine activation of the Keap1-NRF2 protein complex and subsequent translocation of NRF2 into the nucleus. Enzyme activity was quantified using a chemiluminescent substrate consumed following the formation of a functional enzyme upon PK-tagged NRF2 translocation into the nucleus. Additionally, a defined concentration of dimethyl fumarate was used as the ‘High’ control to normalise test compound activation responses to. U2OS PathHunter eXpress cells were thawed from frozen prior to plating. Following plating, U2OS cells were incubated for 24 hrs (37° C./5% CO2) in commercial kit provided cell medium. Following 24 hrs of U2OS incubation, cells were directly treated with an appropriate final concentration of compound. Following compound treatment, the U2OS plates were incubated for a further 6 hours (37° C./5% CO2) before detection reagent from the PathHunter NRF2 commercial kit was prepared and added to test plates according to the manufacturer's instructions. Subsequently, the luminescence signal detection in a microplate reader was measured (PHERAstar®, BMG Labtech). Percentage activation was calculated by normalising the sample data to the high and low controls used within each plate (+/−DMF). Percentage activation/response was then plotted against compound concentration and the 50% activation concentration (EC50) was determined from the plotted concentration-response curve.

With `COC(=O)/C=C/C(=O)OCCN1C(=O)CCC1=O` [2-(2,5-Dioxopyrrolidin-1-yl)ethyl methyl fumarate, reference compound], the CIint with hepatocytes [1] (Table 5), with hepatocytes [1] (Table 6), with hepatocytes [3] (Table 5) and in the data set on hepatocytes [3] (Table 6) was more than 277 μL min^−1 10^−6 cells each time. Besides, the half-life at 10 μM in data set [2] (Table 5, read-out: T½) was less than 5 min; in data set [2] (Table 6, read-out: T½), less than 5 min; in data set [4] it was less than 5 min. Further, the T½ in the data set on hepatocytes [3] (Table 6) is less than 5 min. The same compound showed an IC50 in the data set on IL-1β of 6200 nM.
For `O=C(/C=C/C(=O)OC1CCCCCCC1)OCCc1nnn[nH]1` [Example 5, 2-(1H-tetrazol-5-yl)ethyl cyclooctyl fumarate], the EC50 in the data set on NRF2 (+GSH) was in the range of 20 to 100 µM; in the data set on NRF2 (−GSH) it was 2.1 to 6 µM. Besides, the entries for the “NRF2 activation Emax” value in the data set on NRF2 (+GSH) and with NRF2 (−GSH) were “+ (+ means >17.1-99)” and “+++ (+++ means 150-199%)”, respectively. Moreover, the CIint result in the data set on hepatocytes [1] (Table 5) is given as “+ (+ means >277)”; with hepatocytes [3] (Table 5), “++ (++ means 150-277)”. Further, the half-life at 10 μM in data set [2] (Table 5, read-out: T½) is less than 5 min; in data set [4] it was 5 to 29 min. In the data set with IL-1β, this compound registered an IC50 of 2500 to 6100 nM.
Regarding `C[C@H](OC(=O)/C=C/C(=O)OC1CCCCCCC1)C(=O)O` [Example 6, (S,E)-2-((4-(cyclooctyloxy)-4-oxobut-2-enoyl)oxy)propanoic acid], the values for the EC50 in the data set with NRF2 (+GSH) and in the data set with NRF2 (−GSH) were 6 to 20 µM and less than 2 µM, respectively. For the same compound, the “NRF2 activation Emax” value is given as “+ (+ means >17.1-99)” in the data set with NRF2 (+GSH) and “++++ (++++ means 200-250%)” with NRF2 (−GSH). The CIint result with hepatocytes [1] (Table 5) was “++ (++ means 200-277)”; in the data set with hepatocytes [3] (Table 5), “++++ (++++ means <50)”. Further, the half-life at 10 μM in data set [2] (Table 5, read-out: T½) fell in the range of 5 to 10 min; in data set [4], 30 to 100 min. Besides, in the data set with IL-1β, the IC50 was less than 2500 nM.
In the case of `CC(C)(COC(=O)/C=C/C(=O)OC1CCCCCCC1)C(=O)O` [Example 7, (E)-3-((4-(cyclooctyloxy)-4-oxobut-2-enoyl)oxy)-2,2-dimethylpropanoic acid], the EC50 in the data set on NRF2 (+GSH) is 6 to 20 µM; in the data set with NRF2 (−GSH), less than 2 µM. The results for the “NRF2 activation Emax” value with NRF2 (+GSH) and with NRF2 (−GSH) were “+ (+ means >17.1-99)” and “++++ (++++ means 200-250%)”, respectively. The CIint entry is “+ (+ means >277)” in the data set with hepatocytes [1] (Table 5) and “+++ (+++ means 50-149)” in the data set on hepatocytes [3] (Table 5). Moreover, the half-life at 10 μM in data set [2] (Table 5, read-out: T½) was less than 5 min; in data set [4], 5 to 29 min. The same compound had an IC50 in the data set on IL-1β of less than 2500 nM.
In the case of `O=C(/C=C/C(=O)OC1(C(=O)O)CC1)OC1CCCCCCC1` [Example 8, (E)-1-((4-(cyclooctyloxy)-4-oxobut-2-enoyl)oxy)cyclopropane-1-carboxylic acid], the EC50 in the data set on NRF2 (+GSH) is 20 to 100 µM; in the data set with NRF2 (−GSH) it was less than 2 µM. Besides, the “NRF2 activation Emax” value with NRF2 (+GSH) was “++ (++ means 100-149)”; in the data set with NRF2 (−GSH), “++++ (++++ means 200-250%)”. Further, the CIint result in the data set with hepatocytes [1] (Table 5) is given as “+ (+ means >277)”; in the data set on hepatocytes [3] (Table 5), “+++ (+++ means 50-149)”. The half-life at 10 μM was less than 5 min in data set [2] (Table 5, read-out: T½) and 5 to 29 min in data set [4]. Further, in the data set with IL-1β, the concentration for half-maximal inhibition (IC50) is less than 2500 nM.
In the case of `O=C(O)COC(=O)/C=C/C(=O)OC1CC2(CCC2)C1` [Example 9, (E)-2-((4-oxo-4-(spiro[3.3]heptan-2-yloxy)but-2-enoyl)oxy)acetic acid], the CIint entry was “+ (+ means >277)” with hepatocytes [1] (Table 5) and “++++ (++++ means <50)” in the data set with hepatocytes [3] (Table 5). The half-life at 10 μM in data set [2] (Table 5, read-out: T½) is less than 5 min; in data set [4], 30 to 100 min. This compound also showed an IC50 in the data set with IL-1β of 2500 to 6100 nM.
Taken in the same sequence, the figures for `O=C(O)COC(=O)/C=C/C(=O)OC1CCCCCC1` [Example 10, (E)-2-((4-(cycloheptyloxy)-4-oxobut-2-enoyl)oxy)acetic acid] were “+ (+ means >277)”, “++++ (++++ means <50)”, less than 5 min, 30 to 100 min and less than 2500 nM.
Take `CC(CC(=O)O)OC(=O)/C=C/C(=O)OC1CCCCCCC1` (stereo not shown) [Example 11, (E)-3-((4-(cyclooctyloxy)-4-oxobut-2-enoyl)oxy)butanoic acid]: the EC50 is 20 to 100 µM with NRF2 (+GSH) and less than 2 µM in the data set with NRF2 (−GSH). Besides, the “NRF2 activation Emax” value with NRF2 (+GSH) is listed as “+ (+ means >17.1-99)”; in the data set with NRF2 (−GSH), “++++ (++++ means 200-250%)”. For the same compound, the CIint result was “+ (+ means >277)” with hepatocytes [1] (Table 5) and “+++ (+++ means 50-149)” in the data set on hepatocytes [3] (Table 5). The half-life at 10 μM in data set [2] (Table 5, read-out: T½) was less than 5 min; in data set [4], 5 to 29 min. Further, the half-inhibitory concentration (IC50) with IL-1β was less than 2500 nM.
Consider `C[C@@H](OC(=O)/C=C/C(=O)OC1CCCCCCC1)C(=O)O` [Example 12, (R,E)-2-((4-(cyclooctyloxy)-4-oxobut-2-enoyl)oxy)propanoic acid], for which the EC50 in the data set with NRF2 (+GSH) is 6 to 20 µM; with NRF2 (−GSH), less than 2 µM. The “NRF2 activation Emax” value in the data set with NRF2 (+GSH) is given as “++ (++ means 100-149)”; with NRF2 (−GSH), “++++ (++++ means 200-250%)”. Also, the CIint result is on record as “+ (+ means >277)” in the data set with hepatocytes [1] (Table 5) and “++++ (++++ means <50)” with hepatocytes [3] (Table 5). For the same compound, the half-life at 10 μM in data set [2] (Table 5, read-out: T½) was less than 5 min; in data set [4], more than 100 min. The compound further yielded an IC50 in the data set on IL-1β of less than 2500 nM.
